Reference: patent publication US8883824B2, “3-(4-aminophenyl)-2-furancarboxylic acid derivative and pharmaceutically acceptable salt thereof” (Sumitomo Dainippon Pharma Co., Ltd., priority 2009, dated 2014)
“Also recorded” adds a separate entry of the source. Counter-ions that a name gives are not always drawn.

How the values were obtained:
[1] = target: T1, glucagon receptor (rat hepatocyte membrane) (Rattus norvegicus, UniProt P30082); assay: Glucagon receptor binding inhibition; conditions: SD rat liver cell membrane, 50 pM (3-[125I]iodotyrosyl10)glucagon, 25° C., 120 minutes; read-out: IC50 (nM) Rat, glucagon receptor binding inhibitory activity
T1 construct: A cell membrane was prepared from the liver of an SD rat; from tissue; host or cells: SD rat liver (cell membrane fraction)
Method: The composition of the reaction solution used in the receptor binding inhibition experiment was prepared according to the method described in Bioorg. Med. Chem. Lett., 1992, 12, 915-918, using the following methods. (3-[^125I] iodotyrosyl^10) Glucagon and a rat hepatocyte membrane were obtained or prepared according to the following methods.
(3-[^125I] iodotyrosyl^10)Glucagon was obtained according to the following method at PerkinElmer Co., Ltd (Great Britain). Using a chloramine T method, glucagon (Peptide Institute) was labeled with [^125I], and (3-[^1251] iodotyrosyl ^10)Glucagon was separated using HPLC. Purchased from PerkinElmer Co., Ltd. (Great Britain), was a product obtained by dissolving it in an aqueous solution containing 10 mM citric acid, 5% lactose, 0.2% cysteine HCl, and 0.25% BSA so that the radioactivity was 3.7 MBq/mL at reference date, followed by freeze-drying. The product was re-dissolved in a 0.3-TIU/mL aprotinin aqueous solution so that the radioactivity was 3.7 MBq/mL at reference date, and it was freeze-stored at −15 to −40° C. for use.
A cell membrane was prepared from the liver of an SD rat according to the method described on pages 31 to 33 of Zikken Seibutsugaku Kouza 6, Saibou bunkakuhou (Experimental Biology Lecture 6, Cell Fraction Method) (Maruzen Co., Ltd.). The resulting cell membrane was freeze-stored at −70 to −85° C. for use.
The cell membrane that had been dissolved at room temperature and then suspended using a Physcotron (Microtec Co., Ltd. was added to a 50-mM Tris-HCl buffer (pH 7.2) containing 1 mg/mL BSA (Sigma-Aldrich), 0.1 mg/mL bacitracin (Wako Pure Chemical Industries, Ltd.), 1% DMSO, 0.01% acetic acid, and 50 pM) (3-[^125I] iodotyrosyl^10) Glucagon (pH 7.2) (each value indicating the final concentration and the radioactivity of (3-[^125I] iodotyrosyl^10) Glucagon calculated on the measurement date) to give a total amount of 0.2 mL. The reaction was started and incubation was performed at 25° C. for 120 minutes. The concentration of the cell membrane was adjusted so that 10% of the added)(3-[^1251] iodotyrosyl^100 Glucagon was equal to the total amount of binding.
Using a GF/C filter (Whatman International Ltd., Great Britain) immersed for more than 15 minutes in 0.3% polyethyleneimine (Sigma-Aldrich, Co., LLC), whose pH was adjusted to 7.2 by adding hydrochloric acid, the reaction solution was subjected to suction filtration to recover (3-[^125I] iodotyrosyl)Glucagon bound to the membrane. The filter was washed 3 times with an ice-cooled 50-mM Tris-HCl buffer (pH 7.4), and the radioactivity of the filter was measured by using a γ counter (1470 WIZARD γ-counter)(Wallac). The amount of specific binding was measured by subtracting the amount of nonspecific binding determined in the presence of 10 μM glucagon (Peptide Institute, Inc.) from the total amount of binding.
The amount of specific binding in the absence of a test compound was regarded as 100%, and inhibitions (%) at various concentrations of test compounds were calculated. The concentration at 50% inhibition of binding (IC50) was calculated using a nonlinear least squares method.

[2] = tested on: ob/ob mice; assay: Combination use with pioglitazone, HbA1c in ob/ob mice; format: in vivo; conditions: oral
Method: An experiment using the compound of Example 69 and pioglitazone in combination was performed to examine the effect on the HbAlc values in ob/ob mice.
(§1) B6.V-Lepob/J (ob/ob) mice and control B6.V-Lepob/J (?/+) mice (male, 6 to 7 weeks old, n=8, Charles River Japan) were used. The compound of Example 69 suspended in 0.5% methyl cellulose (3 mg/kg, twice a day), and pioglitazone (1 mg/kg, once a day) were orally administered repeatedly for 4 weeks singly or in combination.
The effects were compared based on the […] (HbA1c) value, and a diabetes-like state (prolonged hyperglycemic state) was confirmed by HbA1c increase in the ob/ob mice.

[3] = tested on: ob/ob mice; assay: Combination use with metformin, HbA1c in ob/ob mice; format: in vivo; conditions: oral; for HbAlc value: single use, 4 weeks (Example 69 3 mg/kg twice a day; metformin 100 mg/kg twice a day)
Method: An experiment using the compound of Example 69 and metformin in combination was performed to examine the effect on the HbAlc value in ob/ob mice.
as §1, with “69 (3 mg/kg, twice a day)” for “69”, “cellulose, and metformin (100” for “cellulose (3”, “a” for “a day), and pioglitazone (1 mg/kg, once a”, “day) dissolved in the solvent” for “day)”

[4] = tested on: ob/ob mice; assay: Combination use with DPPIV inhibitor sitagliptin, postprandial hyperglycemia in ob/ob mice; format: in vivo
Method: B6.V-Lepob/J (ob/ob) mice and control B6.V-Lepob/J (?/+) mice (male, 6 to 7 weeks old, n=8, Charles River Japan) were used. […] One hour later, liquid food (ensure H, Abbott Japan, Co., Ltd., 1.5 kcal/mL) was orally administered. The blood sugar levels immediately before, and 15, 30, 60, and 90 minutes after administration of the liquid food were measured.

[5] = tested on: ob/ob mice; assay: Blood sugar decrease in ob/ob mice (hyperglycemia and impaired fasting glycemia); format: in vivo
From the text: Effects of the compound of Example 69 on hyperglycemia and impaired fasting glycemia in ob/ob mice, which are type II diabetes models, were examined.
B6.V-Lepob/J (ob/ob) mice and control B6.V-Lepob/J (?/+) mice (male, 6 to 7 weeks old, n=8, Charles River Japan Inc.) were used. To examine the effect on hyperglycemia, feed was removed from the cage at the same time as the start of drug administration, and to examine the effect on impaired fasting glycemia, feed was removed from the cage about 20 hours before the scheduled time of drug administration. Under each experimental condition, the mice were allowed free access to drinking water. 2, 4 and 6 hours after the forced oral administration of the compound (0.01-1.0 mg/kg) of Example 69, which had been suspended in 0.5% methyl cellulose, the blood sugar levels were examined.

[6] = combination use of Example 69 (0.1 mg/kg) and sitagliptin (5 mg/lm), single oral dose
[7] = single use, single oral dose (Example 69 0.1 mg/kg; sitagliptin 5 mg/lm) one hour before liquid food

T1 sequence (P30082 27-485): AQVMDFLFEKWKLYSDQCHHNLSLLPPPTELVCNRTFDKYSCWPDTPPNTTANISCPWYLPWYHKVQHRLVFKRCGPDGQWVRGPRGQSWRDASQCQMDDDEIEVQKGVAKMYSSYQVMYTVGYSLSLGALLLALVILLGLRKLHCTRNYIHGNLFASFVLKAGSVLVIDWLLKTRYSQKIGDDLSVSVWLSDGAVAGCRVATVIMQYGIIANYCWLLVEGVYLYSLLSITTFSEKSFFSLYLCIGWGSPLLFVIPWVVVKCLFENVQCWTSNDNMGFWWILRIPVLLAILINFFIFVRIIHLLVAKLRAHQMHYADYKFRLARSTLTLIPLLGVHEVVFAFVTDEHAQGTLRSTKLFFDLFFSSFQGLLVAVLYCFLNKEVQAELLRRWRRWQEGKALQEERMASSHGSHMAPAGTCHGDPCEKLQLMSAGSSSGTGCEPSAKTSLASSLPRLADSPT

SMILES | IC50 [1] | other results
C[C@H](Nc1ccc(-c2ccoc2C(=O)NNC(=O)c2ccc(O)c([N+](=O)[O-])c2)cc1)C1CCCCC1 [Example 77] | 0.35 nM | 
Cc1ccc([C@H](C)Nc2ccc(-c3ccoc3C(=O)NNC(=O)c3ccc(O)c([N+](=O)[O-])c3)cc2)cc1 [Example 69] | 0.085 nM | HbA1c reduction effect versus single use ([2]; combination use of Example 69 (3 mg/kg twice a day) and pioglitazone (1 mg/kg once a day), 4 weeks): higher HbA1c reduction effect; also recorded: extremely stronger HbA1c reduction effect; HbA1c value ([2]; single use, 4 weeks (Example 69 3 mg/kg twice a day; pioglitazone 1 mg/kg once a day)): attained HbA1c reduction; HbAlc reduction effect versus single use ([3]; combination use of Example 69 (3 mg/kg twice a day) and metformin (100 mg/kg twice a day), 4 weeks): higher HbAlc reduction effect; also recorded: extremely stronger HbAlc reduction effect; HbAlc value [3]: HbAlc reduction; area under the blood concentration-time curve (blood sugar) after liquid food [4, 6]: normalized; blood sugar level 15 minutes after the administration of liquid food [4, 6]: normalized; hypoglycemia [4, 6]: without causing hypoglycemia; postprandial hyperglycemia inhibitory effect versus the single use of each agent ([4]; combination use of Example 69 and sitagliptin (FIGS. 1 and 2)): extremely stronger postprandial hyperglycemia inhibitory effect; area under the blood concentration-time curve (blood sugar) after liquid food [4, 7]: normalized; blood sugar increase 15 minutes after the administration of liquid food [4, 7]: could not normalize; duration of the blood sugar decreasing effect ([5]; high-dose administration, oral): continued even 6 hours after the administration; blood sugar level relative to the healthy (control) mouse ([5]; oral 0.01-1.0 mg/kg): not reduced to below the level of the healthy mouse; blood sugar decreasing effect at 2 hours after administration ([5]; oral 0.01-1.0 mg/kg, any dosage, under each experimental condition (hyperglycemia; impaired fasting glycemia)): remarkable blood sugar decreasing effect
C[C@H](Nc1ccc(-c2ccoc2C(=O)NNC(=O)c2ccc(O)c([N+](=O)[O-])c2)cc1)c1ccc(F)cc1 [Example 68, 3-(4-{[(1S)-1-(4-fluorophenyl)ethyl]amino}phenyl)-2-furan carboxylic acid-2-(4-hydroxy-3-nitrobenzoyl)hydrazide] | 0.11 nM | 
Cc1cc([C@H](C)Nc2ccc(-c3ccoc3C(=O)NNC(=O)c3ccc(O)c([N+](=O)[O-])c3)cc2)ccc1Cl [Example 75] | 0.12 nM | 
C[C@@H](Nc1ccc(-c2ccoc2C(=O)NNC(=O)c2ccc(O)c([N+](=O)[O-])c2)cc1)c1ccc(F)cc1 [Example 76] | 5.8 nM | 
CCc1ccc([C@H](C)Nc2ccc(-c3ccoc3C(=O)NNC(=O)c3ccc(O)c([N+](=O)[O-])c3)cc2)cc1 [Example 70] | 0.13 nM | 
C[C@H](Nc1ccc(-c2ccoc2C(=O)NNC(=O)c2ccc(O)c([N+](=O)[O-])c2)cc1)c1ccc(Cl)cc1 [Example 72] | 0.14 nM | 
N#Cc1cc(C(=O)NNC(=O)c2occc2-c2cccc(NC(=O)c3ccccc3)c2)ccc1O [Compound A, reference compound] | 2800 nM | 
CC(=O)N(Cc1ccccc1)c1cccc(-c2ccoc2C(=O)NNC(=O)c2ccc(O)c(C#N)c2)c1 [Compound B, reference compound] | 1200 nM | 
CN(C)C(=N)N=C(N)N [metformin, reference compound] |  | HbAlc value [3]: HbAlc reduction
Cc1ccc([C@H](C)Nc2ccc(-c3ccoc3C(=O)NNC(=O)c3ccc(O)c([N+](=O)[O-])c3)cc2)cc1C [Example 71] | 0.043 nM | 
C[C@H](Nc1ccc(-c2ccoc2C(=O)NNC(=O)c2ccc(O)c(C#N)c2)cc1)c1ccc(F)cc1 [Example 79, 3-(4-{[(1S)-1-(4-fluorophenyl)ethyl]amino}phenyl)-2-furan carboxylic acid-2-(3-cyano-4-hydroxybenzoyl)hydrazide] | 0.74 nM | 
CC(C)(C)c1ccc(CNc2ccc(-c3ccoc3C(=O)NNC(=O)c3ccc(O)c([N+](=O)[O-])c3)cc2)cc1 [Example 6] | 0.13 nM | 
O=C(NNC(=O)c1occc1-c1ccc(NCc2ccc(OC(F)(F)F)cc2)cc1)c1ccc(O)c([N+](=O)[O-])c1 [Example 7] | 0.34 nM | 
CC(=O)Nc1cccc(-c2ccoc2C(=O)NNC(=O)c2ccc(O)c(C#N)c2)c1 [Compound C, reference compound] | 340 nM | 
Cc1cccc([C@H](C)Nc2ccc(-c3ccoc3C(=O)NNC(=O)c3ccc(O)c([N+](=O)[O-])c3)cc2)c1 [Example 73] | 0.16 nM | 
C[C@H](Nc1ccc(-c2ccoc2C(=O)NNC(=O)c2ccc(O)c([N+](=O)[O-])c2)cc1)c1ccccc1 [Example 78] | 0.62 nM | 
Cc1ccc(C(C)Nc2ccc(-c3ccoc3C(=O)NNC(=O)c3ccc(O)c([N+](=O)[O-])c3)cc2)cc1 (stereo not drawn) [Example 1, 3-(4-{[1-(4-methylphenyl)ethyl]amino}phenyl)-2-furan carboxylic acid-2-(4-hydroxy-3-nitrobenzoyl)hydrazide hydrochloride] | 0.22 nM | 
N#Cc1cc(C(=O)NNC(=O)c2occc2-c2cccc(N)c2)ccc1O [Compound E, reference compound] | 9800 nM | 
N#Cc1cc(C(=O)NNC(=O)c2occc2-c2cccc(NC(=O)OCc3ccccc3)c2)ccc1O [Compound D, reference compound] | 400 nM | 
